In patent US9481639B2, “Substituted tetracycline compounds for treatment of inflammatory skin disorders” (Paratek Pharmaceuticals, Inc., priority 2006, dated 2016):
Values after ≈ are worked out from the molar mass of the structure shown. Where two headings read alike, the source gives them in different places.

Columns and labels:
in vitro = type: cell-based
Description: Mammalian cell cytotoxicity was assessed to evaluate potential in vivo risks associated with the tetracycline compounds of the invention. A soluble, non-toxic redox dye (“Resazurin”; Alamar Blue) was used to assess a tetracycline compound's effect on cellular metabolism. At the onset of the experiment, cultures of mammalian COS-1 or CHO cells were washed, trypsinized, and harvested. […] On the next day, serial dilutions of test drug were prepared under sterile conditions and transferred to cell plates. Plates were then incubated under the above conditions for 24 hours. Following the incubation period, the media/drug was aspirated, and 50 μL of resazurin was added. Plates were then incubated under the above conditions for 2 hours and then in the dark at room temperature for an additional 30 minutes. Fluorescence measurements were taken (excitation 535 nm, emission 590 nm) and toxic effects in treated versus control cells were compared based on the degree of fluorescence in each well.

[1] = test system: B. thetaiotaomicron ATCC 29741; experiment: Antibacterial MIC, CLSI broth microdilution; type: cell-based
Description: (§1) Gram (−) and gram (+) antibacterial minimum inhibitory concentration (MIC) values (μg/mL) were obtained using CLSI methodology for anti-bacterial susceptibility testing. On each day of testing, serial dilutions of compounds were prepared in microdilution plates using a Tecan robotic workstation. Mueller Hinton broth cultures of representative sensitive and resistant gram negative strains were grown or adjusted to match the turbidity of a 0.5 McFarland standard. 1:200 dilutions were made in an appropriate broth (cation supplemented Mueller Hinton broth) to allow a final inoculum of 1×10^5 cfu. Plates were incubated at 35° C. in ambient air for 18-24 hours, were read spectrophotometrically and checked manually for evidence of bacterial growth. The lowest dilution of compound that inhibited growth was recorded as the MIC. Lysed horse blood was used to supplement broth for testing S. pneumoniae. The MIC's for each compound were assessed against S. aureus, S. pneumoniae, P. acnes, E. coli and B. theta.

E. coli ATCC 25922 = experiment: Antibacterial MIC, CLSI broth microdilution; type: cell-based; details: Escherichia coli, ATCC25922; 35° C., 18-24 hours
Description: as §1

E. coli MG. 1655 = experiment: Antibacterial MIC, CLSI broth microdilution; type: cell-based; details: Escherichia coli, 35° C., 18-24 hours
Description: as §1

P. acnes ATCC 6919 = experiment: Antibacterial MIC, CLSI broth microdilution; type: cell-based; details: Cutibacterium acnes, ATCC6919
Description: as §1

P. acnes ATCC 11827 = experiment: Antibacterial MIC, CLSI broth microdilution; type: cell-based; details: Cutibacterium acnes, ATCC11827
Description: as §1

[2] = test system: S. pneumoniae 157E - Strep; experiment: Antibacterial MIC, CLSI broth microdilution; type: cell-based; details: Streptococcus pneumoniae, 157ESTREP; broth supplemented with lysed horse blood
Description: as §1

S. aureus RN450 [3] = experiment: Antibacterial MIC, CLSI broth microdilution; type: cell-based; details: Staphylococcus aureus, 35° C., 18-24 hours
Description: as §1

S. aureus RN450 [4] = experiment: In vivo anti-bacterial activity, S. aureus lethal infection model; details: Staphylococcus aureus, sc; mice, lethal IP S. aureus RN450, subcutaneous, 24 hours; read-out: PD50 (dose that protects 50% of the animals)
Description: Groups of five mice were injected intraperitoneally with a lethal dose of S. aureus RN450 in a medium of mucin. Mice were evaluated at 24 hours to determine survival. […] In some instances, a dose response study was performed with the compound such that a PD50 (a dose of compound that protects 50% of the animals) could be calculated.

[5] = Bacteroides thetaiotaomicron, ATCC29741; read-out: MIC B. thetaiotaomicron ATCC 29741
[6] = Bacteroides thetaiotaomicron, ATCC29741, read-out: MIC B. thetaiotaomicron ATCC 29741

| IC50 at 24 h (in vitro; African green monkey) [µg/mL] | IC50 at 24 h (in vitro; Chinese hamster) [µg/mL] | MIC [1, 5] [µg/mL] | MIC (E. coli ATCC 25922) [µg/mL] | MIC (E. coli MG. 1655) [µg/mL] | MIC (P. acnes ATCC 6919) [µg/mL] | MIC (P. acnes ATCC 11827) [µg/mL] | MIC [2] [µg/mL] | MIC (S. aureus RN450 [3]) [µg/mL] | Compound | MIC [1, 6] [µg/mL] | ED50 (S. aureus RN450 [4]) [mg/kg] |
| --- | --- | --- | --- | --- | --- | --- | --- | --- | --- | --- | --- |
|  |  | 4 to 8 (≈ 7.04 to 14.1 µM) | 4 to 8 (≈ 7.04 to 14.1 µM) | 4 to 8 (≈ 7.04 to 14.1 µM) | < 4 | < 4 | < 4 | < 4 | CC(=NOCC(F)(F)F)c1cc(N)c(O)c2c1C[C@H]1C[C@H]3[C@H](N(C)C)C(O)=C(C(N)=O)C(=O)[C@@]3(O)C(O)=C1C2=O [Compound AW, (4S,4aS,5aR,12aS)-9-Amino-4-dimethylamino-3,10,12,12a-tetrahydroxy-1,1,1-dioxo-7-[1-(2,2,2-trifluoro-ethoxyimino)-ethyl]-1,4,4a,5,5a,6,11,12a-octahydro-naphthacene-2-carboxylic acid amide] |  |  |
| > 75 | > 75 | 4 to 8 (≈ 7.77 to 15.5 µM) | < 4 | 4 to 8 (≈ 7.77 to 15.5 µM) | < 4 | < 4 | < 4 | < 4 | CCON=C(C)c1cc(N)c(O)c2c1C[C@H]1C[C@H]3[C@H](N(C)C)C(O)=C(C(N)=O)C(=O)[C@@]3(O)C(O)=C1C2=O [M] |  |  |
| < 35 | < 35 | 4 to 8 (≈ 7.37 to 14.7 µM) | > 8 | > 8 | < 4 | < 4 | < 4 | < 4 | CC(=NOC(C)(C)C)c1cc(N)c(O)c2c1C[C@H]1C[C@H]3[C@@H](N(C)C)C(O)=C(C(N)=O)C(=O)[C@@]3(O)C(O)=C1C2=O [R] |  |  |
| > 75 | > 75 | 4 to 8 (≈ 7.19 to 14.4 µM) | < 4 | < 4 | < 4 | < 4 | < 4 | < 4 | CCON=C(CCN(C)C)c1ccc(O)c2c1C[C@H]1C[C@H]3[C@@H](N(C)C)C(O)=C(C(N)=O)C(=O)[C@@]3(O)C(O)=C1C2=O [Compound I, (4R,4aS,5aR,12aS)-4-Dimethylamino-7-(3-dimethylamino-1-ethoxyimino-propyl)-3,10,12,12a-tetrahydroxy-1,11-dioxo-1,4,4a,5,5a,6,11,12a-octahydro-naphthacene-2-carboxylic acid amide] |  |  |
| 35 to 75 (≈ 59.9 to 128 µM) | < 35 | < 4 | < 4 | < 4 | < 4 | < 4 | < 4 | < 4 | CN(C)CCC(=NOC(C)(C)C)c1ccc(O)c2c1C[C@H]1C[C@H]3[C@H](N(C)C)C(O)=C(C(N)=O)C(=O)[C@@]3(O)C(O)=C1C2=O [O] |  |  |
| > 75 | > 75 | < 4 | < 4 | 4 to 8 (≈ 6.68 to 13.4 µM) | < 4 | < 4 | < 4 | < 4 | CCON=C(C)c1cc(CNCC(C)(C)C)c(O)c2c1C[C@H]1C[C@H]3[C@H](N(C)C)C(O)=C(C(N)=O)C(=O)[C@@]3(O)C(O)=C1C2=O [Compound N, (4S,4aS,5aR,12aS)-4-Dimethylamino-9-[(2,2-dimethyl-propylamino)-methyl]-7-(1-ethoxyimino-ethyl)-3,10,12,12a-tetrahydroxy-1,11-dioxo-1,4,4a,5,5a,6,11,12a-octahydro-naphthacene-2-carboxylic acid amide] |  |  |

Further lines, the compound ahead of its results:

| Compound | IC50 at 24 h (in vitro; African green monkey) [µg/mL] | IC50 at 24 h (in vitro; Chinese hamster) [µg/mL] | MIC [1, 5] [µg/mL] | MIC (E. coli ATCC 25922) [µg/mL] | MIC (E. coli MG. 1655) [µg/mL] | MIC (P. acnes ATCC 6919) [µg/mL] | MIC (P. acnes ATCC 11827) [µg/mL] | MIC [2] [µg/mL] | MIC (S. aureus RN450 [3]) [µg/mL] | MIC [1, 6] [µg/mL] | ED50 (S. aureus RN450 [4]) [mg/kg] |
| --- | --- | --- | --- | --- | --- | --- | --- | --- | --- | --- | --- |
| COC(=O)CONCc1ccc(O)c2c1C[C@H]1C[C@H]3[C@H](N(C)C)C(O)=C(C(N)=O)C(=O)[C@@]3(O)C(O)=C1C2=O [AX] | < 35 | < 35 |  |  |  |  |  |  |  |  |  |
| CN(C)[C@@H]1C(O)=C(C(N)=O)C(=O)[C@@]2(O)C(O)=C3C(=O)c4c(O)ccc(CN5CCCCO5)c4C[C@H]3C[C@@H]12 [AV] | 35 to 75 (≈ 68.2 to 146 µM) | 35 to 75 (≈ 68.2 to 146 µM) |  |  |  |  |  |  |  |  |  |
| CN(C)[C@H]1C(O)=C(C(N)=O)C(=O)[C@@]2(O)C(O)=C3C(=O)c4c(O)ccc(CNOCC(F)F)c4C[C@H]3C[C@@H]12 [AS] | > 75 | > 75 |  |  |  |  |  |  |  |  |  |
| CON(C)Cc1ccc2c(c1O)C(=O)C1=C(O)[C@]3(O)C(=O)C(C(N)=O)=C(O)[C@@H](N(C)C)[C@@H]3C[C@@H]1C2 [Compound AP] | 35 to 75 (≈ 71.8 to 154 µM) | 35 to 75 (≈ 71.8 to 154 µM) | 4 to 8 (≈ 8.2 to 16.4 µM) |  |  |  |  |  |  |  |  |
| CON(C)Cc1ccc(O)c2c1C[C@H]1C[C@H]3[C@@H](N(C)C)C(O)=C(C(N)=O)C(=O)[C@@]3(O)C(O)=C1C2=O [Y] |  |  |  |  |  |  |  |  |  | > 8 |  |
| CN(C)[C@@H]1C(O)=C(C(N)=O)C(=O)[C@@]2(O)C(O)=C3C(=O)c4c(O)ccc(CNOCCF)c4C[C@H]3C[C@@H]12 [Compound AO, (4S,4aS,5aR,12aS)-4-Dimethylamino-7-[(2-fluoro-ethoxyamino)-methyl]-3,10,12,12a-tetrahydroy-1,11-dioxo-1,4,4a,5,5a,6,11,12a-octahydro-naphthacene-2-carboxylic acid amide] | > 75 | > 75 |  |  |  |  |  |  |  |  |  |
| CN(C)[C@@H]1C(O)=C(C(N)=O)C(=O)[C@@]2(O)C(O)=C3C(=O)c4c(O)ccc(CNOCC(F)F)c4C[C@H]3C[C@@H]12 [AR] | < 35 | 35 to 75 (≈ 66.9 to 143 µM) |  |  |  |  |  |  |  |  |  |
| CC(C)ONCc1ccc(O)c2c1C[C@H]1C[C@H]3[C@H](N(C)C)C(O)=C(C(N)=O)C(=O)[C@@]3(O)C(O)=C1C2=O [Compound AN, (4S,4aS,5aR,12aS)-4-Dimethylamino-3,10,12,12a-tetrahydroxy-7-(isopropoxyamino-methyl)-1,11-dioxo-1,4,4a,5,5a,6,11,12a-octahydro-naphthacene-2-carboxylic acid amide] | < 35 | < 35 |  |  |  |  |  |  |  |  |  |
| CCONCc1ccc2c(c1O)C(=O)C1=C(O)[C@]3(O)C(=O)C(C(N)=O)=C(O)[C@@H](N(C)C)[C@@H]3C[C@@H]1C2 [AQ] | < 35 | < 35 |  |  |  |  |  |  |  |  |  |
| CN(C)[C@@H]1C(O)=C(C(N)=O)C(=O)[C@@]2(O)C(O)=C3C(=O)c4cccc(-c5cnccn5)c4C[C@H]3C[C@@H]12 [Compound W, (4S,4aS,5aR,12aS)-4-Dimethylamino-3,12,12a-trihydroxy-1,11-dioxo-7-pyrazin-2-yl-1,4,4a,5,5a,6,11,12a-octahydro-naphthacene-2-carboxylic acid amide] | > 75 | > 75 | > 8 | > 8 | > 8 | < 4 | < 4 | < 4 | < 4 |  | 1.08 |
| CON(C)Cc1ccc(O)c2c1C[C@H]1C[C@H]3[C@H](N(C)C)C(O)=C(C(N)=O)C(=O)[C@@]3(O)C(O)=C1C2=O [Compound P] |  |  |  |  |  |  |  |  |  | 4 to 8 (≈ 8.2 to 16.4 µM) |  |
| CN(C)[C@H]1C(O)=C(C(N)=O)C(=O)[C@@]2(O)C(O)=C3C(=O)c4c(O)ccc(CNOCC(F)(F)F)c4C[C@H]3C[C@@H]12 [AU] | > 75 | > 75 |  |  |  |  |  |  |  |  |  |
| CN(C)[C@@H]1C(O)=C(C(N)=O)C(=O)[C@@]2(O)C(O)=C3C(=O)c4c(O)ccc(CNOCC(F)(F)F)c4C[C@H]3C[C@@H]12 [AT] | < 35 | < 35 |  |  |  |  |  |  |  |  |  |
